According to article PMC9525708, “Mechanistic insight into the role of mevalonate kinase by a natural fatty acid-mediated killing of Leishmania donovani” (Scientific Reports, 2022):
pKd: −log10 of the molar value.

Assays:
[1] = molecular target: T1, mevalonate kinase (MevK, LD-MevK) (Leishmania donovani, UniProt A0A3S7X459); assay: pyruvate kinase-lactate dehydrogenase coupled assay, purified enzyme, […] compound; format: biochemical
T1 construct: gene LdCL_310011300; recombinant LD-MevK (pET28a, Ni-NTA purified, ~37 kDa)
T1 sequence (A0A3S7X459 1-329): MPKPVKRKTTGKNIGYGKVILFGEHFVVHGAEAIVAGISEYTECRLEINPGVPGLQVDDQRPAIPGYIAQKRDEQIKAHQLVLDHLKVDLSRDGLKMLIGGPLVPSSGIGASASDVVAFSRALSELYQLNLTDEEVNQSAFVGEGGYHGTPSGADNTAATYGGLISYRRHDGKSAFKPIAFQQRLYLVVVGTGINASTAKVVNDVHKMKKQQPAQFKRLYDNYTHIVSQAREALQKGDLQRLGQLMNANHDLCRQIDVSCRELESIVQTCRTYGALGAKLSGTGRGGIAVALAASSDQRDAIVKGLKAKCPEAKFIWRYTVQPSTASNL

[2] = molecular target: T1, mevalonate kinase (MevK, LD-MevK); assay: ITC (exothermic binding constant); also CD, and coupled PK-LDH assay with purified enzyme ([…] inhibition at […], competitive); conditions: read-out: ITC (exothermic binding constant); also CD, and coupled PK-LDH assay with purifi
[3] = molecular target: T1, mevalonate kinase (MevK, LD-MevK); assay: ITC (endothermic binding constant); also CD and enzyme kinetics (Km […])

Row | inhibition at 100 µM [1] [%] | Compound | also measured
1 | ~65 | CCCCCCCC(=O)OC [1m-CAE, methyl octanoate] | –
2 | ~65 | CCCCC(C)CCC(=O)O (stereo not shown) [4m-CA, 4-methyl octanoic acid] | –
3 | – | CCCCCCCC(=O)O [CA, Caprylic acid] | pKd [2]: 4.00
4 | – | C[C@@](O)(CCO)CC(=O)O [MEV, 3,5-Dihydroxy-3-methylpentanoic acid] | pKd [3]: 4.20
